Results as given in ChEMBL document CHEMBL1201862, “PubChem BioAssay data set” (2004).
The source made the active and inactive calls. Rule as the data show it, for most assays here: actives have a measured EC50 and inactives only a lower limit.

How the values were obtained:
[1] = fluconazole-exposed Candida albicans growth modulators – fluorescence, retest, confirmation (AID 2467); type: functional, cell-based
[2] = Luminescence Cell-Based Dose Retest to Confirm Inhibitors of Cancer Stem Cells. [Related pubchem assays (depositor defined):AID2717, AID2721]; type: functional; conditions: Homo sapiens
[3] = target: T1, Serine/threonine-protein phosphatase (Candida dubliniensis (strain CD36 / CBS 7987 / NCPF 3949 / NRRLY-17841) (Yeast), UniProt B9W6M3); test: blockers of CaCl2-induced CDRE-lacZ signaling – S. cerevisiae, luminescence, secondary, dose response (AID 2388); type: functional, cell-based;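 also: yeast reporter cells carrying a calcineurin-responsive lacZ construct stimulated with calcium chloride; luminescent beta-galactosidase reporter signal in whole cells rather than isolated phosphatase activity; potency for inhibition where a drop in reporter signal means calcineurin blockade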
T1 sequence (B9W6M3 whole entry): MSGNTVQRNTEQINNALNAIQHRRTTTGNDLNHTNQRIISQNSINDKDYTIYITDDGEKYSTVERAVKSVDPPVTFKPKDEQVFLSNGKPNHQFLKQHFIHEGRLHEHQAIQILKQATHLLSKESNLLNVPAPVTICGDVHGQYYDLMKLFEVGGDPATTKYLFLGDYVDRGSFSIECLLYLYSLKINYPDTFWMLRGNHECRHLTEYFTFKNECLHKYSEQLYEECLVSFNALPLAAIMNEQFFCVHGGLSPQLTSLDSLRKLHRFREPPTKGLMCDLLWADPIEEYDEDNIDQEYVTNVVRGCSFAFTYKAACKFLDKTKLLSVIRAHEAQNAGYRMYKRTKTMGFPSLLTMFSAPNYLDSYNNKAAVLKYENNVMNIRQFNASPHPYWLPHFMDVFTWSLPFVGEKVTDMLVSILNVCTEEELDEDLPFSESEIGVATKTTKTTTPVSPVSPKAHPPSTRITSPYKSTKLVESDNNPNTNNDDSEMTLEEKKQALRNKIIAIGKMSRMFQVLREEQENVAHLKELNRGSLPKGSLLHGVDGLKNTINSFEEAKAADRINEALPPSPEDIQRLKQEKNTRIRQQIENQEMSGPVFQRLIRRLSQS

[4] = target: ATP-dependent molecular chaperone HSP82 (Candida albicans (strain WO-1) (Yeast), UniProt C4YTQ8); test: steroid-induced GRE reporter decrease in yeast – S. cerevisiae, luminescence, Hsp90 inhibitor project, dose response (AID 2400); type: functional, cell-based;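 also: beta-galactosidase luminescence from glucocorticoid response element reporter as proxy for Hsp90 function; inhibitor potency where signal loss means Hsp90 inhibition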
[5] = NIH-3T3 fibroblast cytotoxicity, dose response, cytotoxicity control, cell-based, fluorescence, Alamar Blue, secondary assay (AID 2327); type: functional;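 also: NIH-3T3 mouse fibroblasts cultured with fluconazole at 8 µg/mL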
[6] = target: Dual specificity protein phosphatase 3 (Homo sapiens, UniProt P51452); test: VHR phosphatase inhibition, dose response, selectivity assay for STEP inhibitor project, biochemical (AID 602374); type: functional; conditions: read-out: IC50_Mean
[7] = target: T2, Tyrosine-protein phosphatase non-receptor type 11 (Homo sapiens, UniProt Q06124); test: PTPN11 enzyme inhibitors – biochemical, selectivity assay for STEP inhibitor project, dose response (AID 602367); type: functional; conditions: read-out: IC50_Mean
T2 sequence (Q06124 whole entry): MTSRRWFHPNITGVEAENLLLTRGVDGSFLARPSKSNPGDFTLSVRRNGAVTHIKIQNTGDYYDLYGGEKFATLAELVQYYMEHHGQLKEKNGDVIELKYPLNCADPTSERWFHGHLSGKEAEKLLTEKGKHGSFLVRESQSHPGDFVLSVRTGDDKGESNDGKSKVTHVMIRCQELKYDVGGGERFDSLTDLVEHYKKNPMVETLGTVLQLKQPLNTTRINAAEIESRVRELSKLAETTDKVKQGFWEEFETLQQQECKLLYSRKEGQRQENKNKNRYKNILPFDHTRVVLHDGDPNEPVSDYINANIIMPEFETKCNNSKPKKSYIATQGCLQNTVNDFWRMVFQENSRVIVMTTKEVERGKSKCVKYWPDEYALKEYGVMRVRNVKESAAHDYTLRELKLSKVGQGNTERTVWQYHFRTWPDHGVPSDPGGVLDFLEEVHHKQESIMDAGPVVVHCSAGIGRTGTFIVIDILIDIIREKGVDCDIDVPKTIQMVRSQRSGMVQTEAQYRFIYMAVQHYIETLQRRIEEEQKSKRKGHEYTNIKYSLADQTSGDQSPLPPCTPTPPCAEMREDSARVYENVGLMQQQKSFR

[8] = target: T3, Tyrosine-protein phosphatase non-receptor type 5 (Homo sapiens, UniProt P54829); test: PTPN5 enzyme inhibition – biochemical, fluorescence intensity, uHTS hits, confirmation (AID 602372); type: functional; conditions: read-out: IC50_Mean
T3 sequence (P54829 whole entry): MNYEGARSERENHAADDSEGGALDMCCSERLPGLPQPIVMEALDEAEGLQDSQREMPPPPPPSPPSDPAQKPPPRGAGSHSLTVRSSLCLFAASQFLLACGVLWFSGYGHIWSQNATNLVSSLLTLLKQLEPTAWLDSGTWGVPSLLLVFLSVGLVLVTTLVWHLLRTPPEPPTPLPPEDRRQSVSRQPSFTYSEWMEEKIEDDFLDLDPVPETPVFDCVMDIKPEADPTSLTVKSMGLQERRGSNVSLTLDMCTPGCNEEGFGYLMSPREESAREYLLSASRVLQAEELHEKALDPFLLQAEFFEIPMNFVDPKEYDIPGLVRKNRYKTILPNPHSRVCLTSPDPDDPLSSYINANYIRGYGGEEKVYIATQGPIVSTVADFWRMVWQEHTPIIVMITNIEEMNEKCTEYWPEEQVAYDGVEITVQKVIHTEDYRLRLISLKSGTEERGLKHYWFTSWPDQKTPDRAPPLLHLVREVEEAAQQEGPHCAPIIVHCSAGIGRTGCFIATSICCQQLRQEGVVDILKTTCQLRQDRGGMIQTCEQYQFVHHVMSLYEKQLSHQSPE

[9] = target: T4, Histone-lysine N-methyltransferase NSD2 (Homo sapiens, UniProt O96028); type: biochemical
T4 sequence (O96028 whole entry): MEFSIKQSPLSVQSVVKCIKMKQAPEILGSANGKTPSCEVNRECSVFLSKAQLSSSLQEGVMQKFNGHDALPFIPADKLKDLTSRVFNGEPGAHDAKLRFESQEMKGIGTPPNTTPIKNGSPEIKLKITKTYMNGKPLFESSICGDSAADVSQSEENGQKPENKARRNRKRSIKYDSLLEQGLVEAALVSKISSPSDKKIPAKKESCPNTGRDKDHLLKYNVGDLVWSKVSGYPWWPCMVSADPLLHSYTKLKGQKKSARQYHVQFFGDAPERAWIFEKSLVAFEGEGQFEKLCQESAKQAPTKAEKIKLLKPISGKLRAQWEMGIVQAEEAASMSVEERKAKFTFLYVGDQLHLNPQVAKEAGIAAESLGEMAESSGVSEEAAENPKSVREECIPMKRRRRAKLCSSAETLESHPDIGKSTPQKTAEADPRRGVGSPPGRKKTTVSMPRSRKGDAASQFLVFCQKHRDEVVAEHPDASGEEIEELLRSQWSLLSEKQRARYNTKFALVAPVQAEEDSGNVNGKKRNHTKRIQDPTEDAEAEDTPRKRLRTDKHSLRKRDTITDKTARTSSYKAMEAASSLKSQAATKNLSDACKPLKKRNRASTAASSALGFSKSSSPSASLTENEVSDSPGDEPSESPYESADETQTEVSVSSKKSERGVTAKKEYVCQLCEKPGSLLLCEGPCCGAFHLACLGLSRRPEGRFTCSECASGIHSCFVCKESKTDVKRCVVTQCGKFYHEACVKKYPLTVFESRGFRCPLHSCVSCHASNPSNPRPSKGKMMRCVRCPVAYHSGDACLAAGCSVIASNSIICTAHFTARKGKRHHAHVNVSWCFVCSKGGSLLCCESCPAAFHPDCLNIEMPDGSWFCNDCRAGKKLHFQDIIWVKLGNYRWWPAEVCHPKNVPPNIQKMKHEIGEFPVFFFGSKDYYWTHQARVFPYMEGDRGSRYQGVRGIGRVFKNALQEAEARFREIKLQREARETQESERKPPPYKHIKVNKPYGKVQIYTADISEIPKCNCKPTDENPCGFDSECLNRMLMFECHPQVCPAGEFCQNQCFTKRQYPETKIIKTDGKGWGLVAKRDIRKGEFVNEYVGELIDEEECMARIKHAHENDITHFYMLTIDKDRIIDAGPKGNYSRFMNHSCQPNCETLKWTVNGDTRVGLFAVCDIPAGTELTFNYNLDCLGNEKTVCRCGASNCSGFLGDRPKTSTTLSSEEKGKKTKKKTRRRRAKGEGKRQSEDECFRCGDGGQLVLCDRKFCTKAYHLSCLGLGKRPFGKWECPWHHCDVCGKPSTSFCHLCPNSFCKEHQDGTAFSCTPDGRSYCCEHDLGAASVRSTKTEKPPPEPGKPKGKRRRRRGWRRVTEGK

[10] = target: T5, DNA repair protein RAD52 homolog (Homo sapiens, UniProt P43351); type: functional, biochemical
T5 sequence (P43351 whole entry): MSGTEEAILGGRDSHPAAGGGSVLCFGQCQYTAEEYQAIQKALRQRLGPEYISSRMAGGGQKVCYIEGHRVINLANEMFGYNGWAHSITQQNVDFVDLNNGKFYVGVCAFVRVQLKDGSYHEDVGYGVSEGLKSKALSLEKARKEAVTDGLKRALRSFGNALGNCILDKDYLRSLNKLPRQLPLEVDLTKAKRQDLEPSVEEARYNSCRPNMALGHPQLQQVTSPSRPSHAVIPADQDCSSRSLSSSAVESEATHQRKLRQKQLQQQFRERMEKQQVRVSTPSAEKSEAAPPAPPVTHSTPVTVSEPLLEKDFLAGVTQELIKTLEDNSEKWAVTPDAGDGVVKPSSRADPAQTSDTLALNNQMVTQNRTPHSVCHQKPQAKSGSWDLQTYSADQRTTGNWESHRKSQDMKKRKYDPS

[11] = target: T6, Ubiquitin-conjugating enzyme E2 N (Homo sapiens, UniProt P61088); type: functional;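 also: Dose-response confirmation in a TR-FRET assay detecting UBC13-driven polyubiquitin chain formation, inhibition measured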
T6 sequence (P61088 whole entry): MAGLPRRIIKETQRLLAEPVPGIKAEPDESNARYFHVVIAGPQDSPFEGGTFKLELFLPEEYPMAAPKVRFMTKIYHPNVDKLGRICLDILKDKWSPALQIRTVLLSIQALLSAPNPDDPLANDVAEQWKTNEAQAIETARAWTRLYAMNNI

[12] = system: BJ; test: cells; type: functional, cell-based; conditions: Homo sapiens
[13] = system: BJ; test: BJ-TERT fibroblast viability loss – cell-based, RAS-independent, luminescence, dose response (AID 1933); type: functional; conditions: Homo sapiens
[14] = system: INS1; test: INS-1E survival protection against cytokine death – cell-based, luminescence, retest, dose response (AID 449756); type: functional; conditions: Rattus norvegicus;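 also: cell death triggered by IL-1 beta plus TNF-alpha plus IFN-gamma mixture; protective hits raise ATP signal compared with cytokine alone wells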
[15] = system: BJ; test: BJ-TERT-LT-ST fibroblast viability loss – cell-based, RAS-independent, luminescence, dose response (AID 1935); type: functional; conditions: Homo sapiens;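 also: BJ fibroblasts immortalized with TERT plus LT and ST oncogenes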
[16] = target: Heat shock protein HSP 90-alpha (Homo sapiens, UniProt P07900); type: functional, organism-based
[17] = DRD fibroblast viability loss – cell-based, non-viral oncogenic, luminescence, dose response (AID 1934); type: functional; conditions: Homo sapiens
[18] = microbe, parasite or virus in culture; type: functional; conditions: Mycobacterium tuberculosis
[19] = NIH3T3 cell viability loss – ATP luminescence, mouse fibroblasts, counter-screen, dose response (AID 2010); type: functional, cell-based;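 also: cells exposed to compound for about 90 hours before reading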
[20] = Trypanosoma cruzi growth suppression in host cells – NIH3T3 host cells, beta-gal luminescence, confirmation (AID 2044); type: functional, cell-based;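 also: intracellular parasites grown in NIH/3T3 mouse fibroblasts as host cells; luminescent beta-galactosidase reporter signal from transgenic T. cruzi replicating inside host cells; inhibitors lower the luminescence signal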
[21] = cells; type: functional, cell-based
[22] = cells; type: functional, cell-based; remark: listed apart in the source

Chain of ATP-dependent molecular chaperone HSP82 (C4YTQ8 whole entry): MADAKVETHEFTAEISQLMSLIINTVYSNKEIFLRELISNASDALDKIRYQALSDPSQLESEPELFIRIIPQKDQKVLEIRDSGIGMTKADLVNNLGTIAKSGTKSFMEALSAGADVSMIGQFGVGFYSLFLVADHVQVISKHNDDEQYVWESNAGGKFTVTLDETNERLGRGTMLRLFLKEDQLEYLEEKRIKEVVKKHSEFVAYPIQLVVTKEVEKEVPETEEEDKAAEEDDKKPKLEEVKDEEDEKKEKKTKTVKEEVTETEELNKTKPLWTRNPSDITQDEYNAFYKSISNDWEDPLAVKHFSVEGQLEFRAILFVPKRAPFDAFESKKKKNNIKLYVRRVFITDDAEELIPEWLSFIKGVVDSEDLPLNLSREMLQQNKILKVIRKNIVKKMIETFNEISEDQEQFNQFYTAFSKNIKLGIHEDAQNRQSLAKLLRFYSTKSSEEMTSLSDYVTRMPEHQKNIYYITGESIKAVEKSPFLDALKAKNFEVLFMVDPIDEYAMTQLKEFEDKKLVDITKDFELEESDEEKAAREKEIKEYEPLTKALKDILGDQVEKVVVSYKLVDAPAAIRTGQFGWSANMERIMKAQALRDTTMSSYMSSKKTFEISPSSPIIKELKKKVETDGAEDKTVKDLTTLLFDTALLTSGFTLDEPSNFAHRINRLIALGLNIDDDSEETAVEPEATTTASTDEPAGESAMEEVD
Chain of Dual specificity protein phosphatase 3 (P51452 whole entry): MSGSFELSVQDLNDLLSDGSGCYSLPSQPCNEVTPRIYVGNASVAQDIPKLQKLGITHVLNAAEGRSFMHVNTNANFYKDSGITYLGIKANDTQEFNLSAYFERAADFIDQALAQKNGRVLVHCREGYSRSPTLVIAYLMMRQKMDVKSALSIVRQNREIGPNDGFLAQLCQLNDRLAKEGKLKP

COc1ccc(C2=NN(c3nc4ccccc4s3)C(=O)C2)cc1
EC50 [1]: > 38 µM (not active)
AC50 [2]: 2.21 µM (active)
EC50 [3]: 3.92 µM (active)
EC50 [4]: 1.4 µM (active)
EC50 [5]: > 160 µM (inconclusive)

NS(=O)(=O)c1ccc(NC(=S)N2CCC(Cc3ccccc3)CC2)cc1
IC50 [6]: 1.03 µM (active)
IC50 [7]: 3.13 µM (active)
IC50 [8]: 38.8 µM (inactive)

C=CCNCCCCOc1ccccc1
AC50 [9]: > 20 µM (inactive)

CN(C)CCOC(=O)c1ccc2[nH]c3c(c2c1)CSCC3
AC50 [10]: 0.792 µM (active)
IC50 [11]: > 20 µM (inactive)

O=C1NN(c2cccc(Br)c2)C(=O)/C1=C\c1ccc(N2CCOCC2)cc1
IC50 [6]: 2.55 µM (active)
IC50 [7]: 4.48 µM (active)
IC50 [8]: 21.3 µM (inactive)

CCCCC(=O)NC(=S)Nc1cccc(NC(=O)c2ccco2)c1
EC50 [1]: 4.79 µM (active)
EC50 [3]: > 180 µM (inactive)
EC50 [4]: > 160 µM (inactive)
EC50 [5]: > 150 µM (inconclusive)

C(C#CCCCCCCCCC[n+]1ccccc1)#CCCCCCCCCC[n+]1ccccc1
EC50 [12]: > 150 µM (inconclusive)
EC50 [13]: 2.28 µM (inconclusive)
EC50 [1]: 0.05 µM (active)
AC50 [14]: 1.67 µM (active)
EC50 [15]: 6.02 µM (active)
AC50 [16]: 3.58 µM (active)
EC50 [17]: 5.68 µM (active)
EC50 [3]: > 180 µM (inactive)
EC50 [4]: > 150 µM (inactive)
CC50 [18]: > 40 µM (active)
EC50 [5]: > 150 µM (inactive)

CCN(CC)CCCNc1ncnc2scc(-c3ccc(F)cc3)c12
AC50 [9]: > 20 µM (inactive)

COc1cccc(/C=N/NC(=O)c2c(C)nc3ccc(Br)cn23)c1O
EC50 [1]: 0.483 µM (active)
AC50 [14]: 0.842 µM (active)
EC50 [19]: > 60 µM (inconclusive)
EC50 [20]: 3.06 µM (active)
EC50 [21]: 7.35 µM (active)
EC50 [3]: > 180 µM (inactive)
EC50 [4]: 23.8 µM (active)
EC50 [5]: > 160 µM (inactive)
EC50 [22]: 126 µM (active)
